Results published in PubChem BioAssay (NCI).
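96-well plates; 48 h exposure; 5 concentrations. Endpoints by linear interpolation between flanking doses. Not reached: highest tested concentration assigned. The concentration for full growth arrest is given as TGI.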

Legend:
Assay in all cases: inhibition of tumour cell growth, NCI panel, 48 h
HL-60(TB) leukemia = test system: HL-60(TB) leukemia
IGROV1 ovarian = test system: IGROV1 ovarian
MALME-3M melanoma = test system: MALME-3M melanoma
MDA-MB-231 breast = test system: MDA-MB-231 breast
OVCAR-4 ovarian = test system: OVCAR-4 ovarian
SF-295 CNS = test system: SF-295 CNS
SK-MEL-5 melanoma = test system: SK-MEL-5 melanoma
SN12C renal = test system: SN12C renal
SR leukemia = test system: SR leukemia
T-47D breast = test system: T-47D breast

| SMILES | TGI (HL-60(TB) leukemia) | TGI (IGROV1 ovarian) | TGI (MALME-3M melanoma) | TGI (MDA-MB-231 breast) | TGI (OVCAR-4 ovarian) | TGI (SF-295 CNS) | TGI (SK-MEL-5 melanoma) | TGI (SN12C renal) | TGI (SR leukemia) | TGI (T-47D breast) |
| --- | --- | --- | --- | --- | --- | --- | --- | --- | --- | --- |
| Cc1cccc(N=N/C(=N\NC(=O)c2cc(Cl)ccc2O)c2ccc(N(CCC#N)CCC#N)cc2C)c1 | 34.4 µM | 43.6 µM | 94.1 µM | 58.6 µM | 76.3 µM | > 100 µM | > 100 µM | 69 µM | 52.4 µM | 59.6 µM |
| COc1cc(OC)c(/C=N\Nc2nc3ccccc3c(=O)n2-c2ccccc2)c(OC)c1 | > 100 µM | > 100 µM | 79.3 µM | 65.5 µM | > 86.1 µM | 65.1 µM | > 79.7 µM | 98.8 µM | > 100 µM | 64.5 µM |
| C#CCn1c(=O)ccn(/C(=C/C(=O)OCC)C(=O)OCC)c1=O | > 52.9 µM | 13.8 µM | 5.19 µM | 40.9 µM | 17.8 µM | > 60.5 µM | 31 µM | 29.5 µM | > 100 µM | 14.1 µM |
| COC(=O)c1c2c(cc3c1CC1(C3)Cc3cc4c(c(C(=O)OC)c3C1)CCC4)CCC2 | > 100 µM | > 100 µM | > 100 µM | > 100 µM | > 100 µM | > 100 µM | > 100 µM | > 100 µM | > 100 µM | > 100 µM |
